Source: PMC6099102, “Effect of the Nature of Donor Atoms on the Thermodynamic, Kinetic and Relaxation Properties of Mn(II) Complexes Formed With Some Trisubstituted 12-Membered Macrocyclic Ligands” (Frontiers in Chemistry, 2018)

Assay: Stability and protonation constants and pMn of the Mn(II) complexes (pH-potentiometry and/or 1H relaxometry)
Assay type: physicochemical
Details: I = 0.15 M NaCl, 25 °C; for pMn: calculated at pH = 7.4, cM = cL = 10^−5 M; for log KMLH: protonation constant of the Mn(II) complex
Experimental: The concentration of the ligand solutions was determined by pH-potentiometric titration in the presence and absence of an excess (5–10 fold) of MnCl2. For determining the protonation constants of the investigated ligands, pH-potentiometric titrations were made by means of 0.2 M standardized NaOH in 2 and 3 mM ligand solutions in the pH-range of 1.75–11.85. All equilibrium measurements were performed at a constant 0.15 M NaCl ionic strength at 25 °C. The protonation and the stability constants of the Mn(II) complexes were determined by pH-potentiometric titrations (DOTP, DO3A, PCTA, ODO3A, DO3P) while owing to the slow formation rates of Mn(II) complexes formed with amide type ligands, the stability constants of DOTAM, DOTMA, DO3AM^H, PC3AM^H, PC3AM^Gly, PC3AM^Pip complexes were determined by out-of-cell pH-potentiomertry in combination with ^1H relaxometry. The metal-to-ligand concentration ratio in the solutions was 1:1. For the calculation of protonation constants of the ligands and the log KMnL and log KMnLHi values of the complexes, mL–pH data pairs (50–180), obtained in the pH range of 1.75–11.85 or r1obs-pH data pairs (10–15 batch samples) obtained in the pH range of 2–4.5 were used (the samples were equilibrated for 4–7 days). The equilibrium constants characterizing the deprotonation that occurs at basic pH were determined from the data obtained via direct pH-potentiometric titrations performed on the pre-formed complexes.
The pH-potentiometric titrations were carried out with a Methrohm 888 Titrando titration workstation using a Metrohm-6.0233.100 combined electrode. The samples (6.00 mL) were thermostated at 25 °C. The samples were stirred and kept under inert gas (N2) to avoid the effect of CO2. KH-phthalate (pH = 4.005) and borax (pH = 9.177) buffers were used for the pH-calibration. The method proposed by Irving et al. was used for the calculation of H^+ concentrations from the measured pH values (Irving et al., [1967]). A 0.01 M HCl (I = 0.15 M set with NaCl) solution was titrated with standardized NaOH solution of known concentration (approx. 0.2 M). The correction factor obtained as difference of calculated pH and measured pH values was used to calculate the [H^+] in the samples. The ionic product of water was determined from the same titrations (HCl/NaOH) from the data collected in the pH range of 11.20–11.85.
The relaxometric data were collected using a Bruker Minispec MQ20 NMR relaxometer. […] A datapoint plotted on figures represents an average of 5–6 T1 measurements (Figures S3–S9 in Supplementary Material). The data were fitted by using the molar r1p relaxivity value of the MnCl2 ([…] at 0.49 T and 25 °C). The equilibrium constants were calculated using the PSEQUAD program (Zékány and Nagypál, [1985]).
In order to gain information on the thermodynamic stability of the Mn(II) complexes, samples containing the metal and ligand in 1 to 1 molar ratio were studied by pH potentiometry or ^1H-relaxometry and in some cases by a combination of the two methods. The titration data were fitted by assuming the existence of [M(L)] and some protonated species ([M(HiL)]) at lower pH values. In some cases to fit the data obtained at higher pH, the formation of ternary hydroxido complexes ([M(L)(OH)]) were also included in the equilibrium model. The stability constants (KML) and the various protonation forms (KMHiL) of ML metal chelates are defined by Equations (3)–(5). However, a comparison of the stabilities of different complexes solely on the basic of their stability constants might be misleading because of the differences in ligand basicities. […] The pMn value accounts for the effect of proton competition (ligand basicity and complex protonation) on the stability constant essentially offering the same information as the conditional stability constant. Higher pMn values indicate a higher chelate stability at specified conditions. […]

[1] = stability constant of the Mn(II) complex by 1H-relaxometry
[2] = stability constant of the Mn(II) complex

| SMILES | pMn | log KMLH | log KML [1] | log KML [2] | log KMHLH (second protonation constant of the Mn(II) complex) | log KMH2LH (third protonation constant of the Mn(II) complex) | log KMLOH (ternary hydroxido complex of Mn(II)) |
| --- | --- | --- | --- | --- | --- | --- | --- |
| O=C(O)CN1CCN(CC(=O)O)Cc2cccc(n2)CN(CC(=O)O)CC1 [PCTA] | 9.74 | 1.96(1) | 16.64 (7) | 16.83 (1) | – | – | – |
| O=C(CN1CCN(CC(=O)N2CCCCC2)Cc2cccc(n2)CN(CC(=O)N2CCCCC2)CC1)N1CCCCC1.[Mn+2] [[Mn(PC3AM^Pip)]^2+] | 8.86 | – | – | – | – | – | – |
| O=C(O)CN1CCNCCN(CC(=O)O)CCN(CC(=O)O)CC1 [DO3A] | 8.66 | 4.26 (2) | – | 16.55 (4) | – | – | – |
| O=P(O)(O)CN1CCNCCN(CP(=O)(O)O)CCN(CP(=O)(O)O)CC1 [DO3P] | 6.43 | 8.06 (2) | – | 17.45 (2) | 7.05 (1) | 5.31 (2) | – |
| NC(=O)CN1CCN(CC(N)=O)Cc2cccc(n2)CN(CC(N)=O)CC1 [PC3AM^H] | 7.77 | – | 11.78 (8) | 11.94(3) | – | – | 10.90 (4) |
